≈ marks a conversion by molar mass, not a printed value. Read-outs that look alike come from different tables or passages of the source.

The subject of assay [1] is Aspergillus flavus CCUG 28296. The assay can be described thus: Robotic MIC assay, Aspergillus (Example 4). The format is cell-based. Particulars: Mueller-Hinton broth; for MIC: Aspergillus flavus, CCUG23451 / CCUG28296, 48 h, read-out: Minimum Inhibitory Concentration (MIC); for Minimum Inhibitory Concentration (MIC): A. flavus CCUG 23451, 48 hours. As to the method: (§1) Aspergillus sp. was grown at 30° C. for 96 h on YM-agar. Spores and aerial mycelium was cut out from the agar, suspended in 1 ml YM-broth and dispersed with glass beads (1 mm) in a mini bead beater for 2 min. Glycerol was added to the suspension to 10% and frozen at −80° C.
(§2) Each batch of frozen stock culture was then characterized in separate growth experiments using Mueller-Hinton broth to determine the minimum amount of inoculum giving satisfactory growth after 48 h under the conditions relevant for the MIC assay. This inoculation procedure is used in order to reduce day to day variation in bioassays.
(§3) Robotic minimum inhibitory concentration (MIC) assay was performed as follows. OligoG CF-5/20 was dissolved in medium (Mueller-Hinton broth) to 1.25 times of the desired assay concentrations (2, 6 and 10%). […].
(§4) Two-fold serial dilutions of antifungal agents were made in medium with different concentrations of OligoG CF-5/20, and the solutions were placed in four parallel wells in Nunc 384-well micro plates (30 μl per well in Nunc 242757 microplates). A group of 8 wells with no addition of antifungal agents for each OligoG CF-5/20 concentration was included on each micro plate as growth reference. Each well in the 384-well assay plates was added 7.5 μl of the MH medium inoculated with frozen stock culture of the relevant strains.
(§5) The microplates were placed in plastic bags and incubated without shaking at 34° C. The optical density at 600 nm in the microwells was measured after approximately 24 and 48 hours of incubation. […]

Assay [2] concerns Aspergillus fumigatus CCUG 17460. The assay can be described thus: Robotic MIC assay, Aspergillus (Example 4). The format is cell-based. The conditions noted are these: Mueller-Hinton broth; for MIC: Aspergillus fumigatus, CCUG17460, 48 h, read-out: Minimum Inhibitory Concentration (MIC); for Minimum Inhibitory Concentration (MIC): A. fumigatus CCUG 17460, 48 hours. As to the method:
as §1, §2, §3, §4, §5

The subject of assay [3] is Aspergillus niger CCUG 18919. The assay can be described thus: Robotic MIC assay, Aspergillus (Example 4). The conditions noted are these: Mueller-Hinton broth; for MIC: Aspergillus niger, CCUG18919, 48 h, read-out: Minimum Inhibitory Concentration (MIC); for Minimum Inhibitory Concentration (MIC): A. niger CCUG 18919, 48 hours. The format is cell-based. As to the method:
as §1, §2, §3, §4, §5

Assay [4] relates to various Aspergillus species. The assay can be described thus: Robotic MIC assay, summary over species (Example 4). The conditions noted are these: Aspergillus species tested. It is filed as cell-based. The procedure: as §1, §2, §3, §4, §5
The subject of assay [5] is C. parapsillosis ATCC 22019T. As to the kind of experiment: Robotic MIC assay, Candida strains (Example 2). It is filed as cell-based, Candida parapsilosis. The conditions noted are these: Mueller-Hinton broth; for MIC: Lodderomyces parapsilosis, ATCC22019, 48 h, read-out: Minimum Inhibitory Concentration (MIC); for Minimum Inhibitory Concentration (MIC): 48 h. As to the method: A robotic MIC Assay was performed as follows. OligoG CF-5/20 were dissolved in medium (Mueller-Hinton broth or M19 broth depending on experiment) to 1.25 times of the desired assay concentrations (2, 6 and 10%). The antifungal agents under test were dissolved in medium without OligoG CF-5/20 and in medium with OligoG CF-5/20 at a concentration of 1.25 times the highest desired assay concentrations. For experiments where the effect of adding different concentrations of Na^+ was investigated, NaCl was dissolved in medium to the desired concentrations (10, 30 and 50 mM).
Two-fold serial dilutions of antifungal agents were made in medium with different concentrations of OligoG CF-5/20, and the solutions were placed in four parallel wells in Nunc 384-well micro plates (30 μl per well in Nunc 242757 microplates). A group of 8 wells with no addition of antifungal agents for each OligoG CF-5/20 concentration was included on each microplate as growth reference. To each well in the 384-well assay plates was added 7.5 μl of medium inoculated with a frozen stock culture of Candida albicans (strain CCUG 39343).
The micro plates were placed in plastic bags and incubated without shaking at 34° C. The optical density at 600 nm in the microwells was measured after approximately 13, 18, 24 and 34 hours of incubation, and the relative growth yield in each well was calculated based on the growth in the reference groups.
The robotic assay described in Example 1 was employed in this Example. Strains were grown in Mueller-Hinton broth (LAB114 from Lab M Limited) and MIC values (μg ml-1) were determined for each antifungal after incubation for 48 h in the presence of 0, 2, 6 and 10% OligoG CF-5/20 G-fragments. […] OligoG CF-5/20 G-fragments were provided by AlgiPharma AS, Norway.
Candida strains used were as follows: • C. albicans CCUG 39343 (strain from culture collection) • C. parapsillosis ATCC 22019T (strain from culture collection) • C. krusei 141/03 (candidosis) • C. krusei 249/03(2) (ulceration) • C. lusitaniae 994/01(2) (candidosis) • C. tropicalis 12 (vaginal) • C. tropicalis 75 (vaginal) • C. tropicalis 519468 (urinary) • C. tropicalis 544123 (urinary) • C. tropicalis 250/03 (candidosis) • C. tropicalis AG1 (oral) • C. tropicalis T2.2 (oral)

Where [6] appears, read: A. flavus CCUG 23451, 0% OligoG.
The mark [7] stands for this setting: A. flavus CCUG 23451, 2% OligoG.
The mark [8] stands for this setting: A. flavus CCUG 23451, 6% OligoG.
Setting [9] is: A. flavus CCUG 23451, 10% OligoG.
[10] abbreviates: A. fumigatus CCUG 17460, 0% OligoG.
[11] abbreviates: A. fumigatus CCUG 17460, 2% OligoG.
[12] abbreviates: A. fumigatus CCUG 17460, 6% OligoG.
Setting [13] is: A. fumigatus CCUG 17460, 10% OligoG.
Setting [14] is: A. niger CCUG 18919, 10% OligoG.

In the case of `Clc1ccc(COC(Cn2ccnc2)c2ccc(Cl)cc2Cl)c(Cl)c1` (stereo not shown) [Miconazole, miconazole], the MIC in assay [1] (setting [6]) is 1 µg/mL (≈ 2.4 µM); in assay [1] (setting [7]), 0.25 µg/mL (≈ 0.601 µM); in assay [1] (setting [8]) it was 0.25 µg/mL (≈ 0.601 µM); in assay [1] (setting [9]) it was 0.25 µg/mL (≈ 0.601 µM); in assay [2] (setting [10]), 4 µg/mL (≈ 9.61 µM); in assay [2] (setting [11]), 2 µg/mL (≈ 4.81 µM). The MIC in assay [2] (setting [12]) was found to be 2 µg/mL (≈ 4.81 µM); in assay [2] (setting [13]), 2 µg/mL (≈ 4.81 µM); in assay [3] (A. niger CCUG 18919, 0% OligoG) it was 1 µg/mL (≈ 2.4 µM); in assay [3] (A. niger CCUG 18919, 2% OligoG) it was 0.5 µg/mL (≈ 1.2 µM); in assay [3] (A. niger CCUG 18919, 6% OligoG) it was 0.25 µg/mL (≈ 0.601 µM); in assay [3] (setting [14]), 0.25 µg/mL (≈ 0.601 µM). The “effect of addition of OligoG CF-5/20 on MIC values” (“effect” for short) in assay [4] is given as “reduction in MIC values”.

On to `CN(C/C=C/C#CC(C)(C)C)Cc1cccc2ccccc12` [Terbinafine, terbinafine], for which the MIC in assay [5] (0% OligoG) stood at 2 µg/mL (≈ 6.86 µM); in assay [5] (2% OligoG), 1 µg/mL (≈ 3.43 µM); in assay [5] (6% OligoG) it was 2 µg/mL (≈ 6.86 µM); in assay [5] (10% OligoG), 1 µg/mL (≈ 3.43 µM); in assay [1] (setting [6]), 0.125 µg/mL (≈ 0.429 µM); in assay [1] (setting [7]), 0.0625 µg/mL (≈ 0.214 µM). Moreover, the MIC in assay [1] (setting [8]) is less than 0.0312 µg/mL; in assay [1] (setting [9]), less than 0.0312 µg/mL; in assay [2] (setting [10]), 4 µg/mL (≈ 13.7 µM); in assay [2] (setting [11]), 4 µg/mL (≈ 13.7 µM); in assay [2] (setting [12]), 4 µg/mL (≈ 13.7 µM); in assay [2] (setting [13]), 2 µg/mL (≈ 6.86 µM). Further, the MIC in assay [3] (A. niger CCUG 18919, 0% OligoG) amounted to 0.5 µg/mL (≈ 1.72 µM); in assay [3] (A. niger CCUG 18919, 2% OligoG) it was 0.25 µg/mL (≈ 0.858 µM); in assay [3] (A. niger CCUG 18919, 6% OligoG) it was 0.0625 µg/mL (≈ 0.214 µM); in assay [3] (setting [14]) it was 0.125 µg/mL (≈ 0.429 µM). In addition, the “effect” value in assay [4] is given as “reduction in MIC values”.

As to `OC(Cn1cncn1)(Cn1cncn1)c1ccc(F)cc1F` [Fluconazole, fluconazole], the MIC was 2 µg/mL (≈ 6.53 µM) in assay [5] (0% OligoG); 2 µg/mL (≈ 6.53 µM) in assay [5] (2% OligoG); 0.5 µg/mL (≈ 1.63 µM) in assay [5] (6% OligoG); 0.25 µg/mL (≈ 0.816 µM) in assay [5] (10% OligoG); 64 µg/mL (≈ 209 µM) in assay [1] (setting [6]); 64 µg/mL (≈ 209 µM) in assay [1] (setting [7]). Moreover, the MIC was 32 µg/mL (≈ 104 µM) in assay [1] (setting [8]); 32 µg/mL (≈ 104 µM) in assay [1] (setting [9]); more than 128 µg/mL in assay [2] (setting [10]); more than 128 µg/mL in assay [2] (setting [11]); 128 µg/mL (≈ 418 µM) in assay [2] (setting [12]); 128 µg/mL (≈ 418 µM) in assay [2] (setting [13]). The MIC in assay [3] (A. niger CCUG 18919, 0% OligoG) was more than 128 µg/mL; in assay [3] (A. niger CCUG 18919, 2% OligoG) it was more than 128 µg/mL; in assay [3] (A. niger CCUG 18919, 6% OligoG) it was more than 128 µg/mL; in assay [3] (setting [14]), 128 µg/mL (≈ 418 µM).

With `C[C@@H]1[C@H](O)[C@@H](C)/C=C/C=C/CC/C=C/C=C/C=C/C=C/C(O[C@H]2O[C@H](C)[C@@H](O)[C@H](N)[C@@H]2O)CC2O[C@](O)(CC(O)C(O)CCC(O)CC(O)CC(O)CC(=O)O[C@H]1C)CC(O)C2C(=O)O` (stereo partly shown) [Nystatin, nystatin], the “Minimum Inhibitory Concentration (MIC)” value in assay [5] (0% OligoG) was determined as 4 µg/mL; in assay [5] (2% OligoG), 2 µg/mL; in assay [5] (6% OligoG), 1 µg/mL; in assay [5] (10% OligoG), 0.5 µg/mL; in assay [1] (0% OligoG), 8 µg/mL; in assay [1] (2% OligoG), 8 µg/mL. Besides, the “Minimum Inhibitory Concentration (MIC)” value was found to be 4 µg/mL in assay [1] (6% OligoG); 2 µg/mL in assay [1] (10% OligoG); 8 µg/mL in assay [2] (0% OligoG); 8 µg/mL in assay [2] (2% OligoG); 4 µg/mL in assay [2] (6% OligoG); 2 µg/mL in assay [2] (10% OligoG). Moreover, the “Minimum Inhibitory Concentration (MIC)” value came out at 8 µg/mL in assay [3] (0% OligoG), 4 µg/mL in assay [3] (2% OligoG), 2 µg/mL in assay [3] (6% OligoG) and 0.5 µg/mL in assay [3] (10% OligoG). Moreover, in assay [4], the “effect” value is listed as “reduction in MIC values”.

`C[C@@H]1[C@H](O)[C@@H](C)/C=C/C=C/C=C/C=C/C=C/C=C/C=C/[C@H](O[C@@H]2O[C@H](C)[C@@H](O)[C@H](N)[C@@H]2O)C[C@@H]2O[C@](O)(C[C@@H](O)C[C@@H](O)[C@H](O)CC[C@@H](O)C[C@@H](O)CC(=O)O[C@H]1C)C[C@H](O)[C@H]2C(=O)O` [Amphotericin B, amphotericin B]: the MIC in assay [1] (setting [6]) came to 0.75 µg/mL (≈ 0.812 µM); in assay [1] (setting [7]), 0.375 µg/mL (≈ 0.406 µM); in assay [1] (setting [8]), 0.375 µg/mL (≈ 0.406 µM); in assay [1] (setting [9]), 0.188 µg/mL (≈ 0.203 µM); in assay [2] (setting [10]) it was 0.75 µg/mL (≈ 0.812 µM); in assay [2] (setting [11]), 0.375 µg/mL (≈ 0.406 µM). For the same compound, the MIC in assay [2] (setting [12]) came to 0.375 µg/mL (≈ 0.406 µM); in assay [2] (setting [13]) it was 0.188 µg/mL (≈ 0.203 µM); in assay [3] (A. niger CCUG 18919, 0% OligoG) it was 0.188 µg/mL (≈ 0.203 µM); in assay [3] (A. niger CCUG 18919, 2% OligoG), 0.188 µg/mL (≈ 0.203 µM); in assay [3] (A. niger CCUG 18919, 6% OligoG), 0.0938 µg/mL (≈ 0.101 µM); in assay [3] (setting [14]), 0.0469 µg/mL (≈ 0.0507 µM). Besides, the “effect” value in assay [4] is given as “reduction in MIC values”.

These data come from US20150126467A1, “USE OF ALGINATE OLIGOMERS TO ENHANCE THE EFFECTS OF ANTIFUNGAL AGENTS” (AlgiIPharma AS, priority 2011, published 2015).
